According to publication PMC9187652, “Investigating the ligand agonism and antagonism at the D2long receptor by dynamic mass redistribution” (Scientific Reports, 2022):
Like-named read-outs stand apart in the source and are kept apart here. Marks after values point to notes of the source that are not given here. *1 amine or outer side, *2 acyl side, *3 side chain or, on linkers, in order; H or OH if unused. Where a SMILES comes first, the peptide text is derived from it. Bridges are numbered along the chain shown (N, C = ends). [ ]: non-standard residue; d: D form. The star is where a group is joined. Leu(3R-OH,Nα-propionyl) = CCC(=O)N[C@H](C(=O)*)[C@H](O)C(C)C; X1 = CC(C)[C@@H](O[*:3])[C@H](N[*:1])C(=O)[*:2]; NMeT = CN[C@H](C(=O)O)[C@@H](C)O; dPhLac = O=C(O)[C@H](O)Cc1ccccc1; NMeA = CN[C@@H](C)C(=O)O; NMeDha = C=C(NC)C(=O)O

Assays:
[1] = target: T1, human dopamine D2long receptor (Homo sapiens, UniProt P14416)
T1 sequence (P14416 whole entry): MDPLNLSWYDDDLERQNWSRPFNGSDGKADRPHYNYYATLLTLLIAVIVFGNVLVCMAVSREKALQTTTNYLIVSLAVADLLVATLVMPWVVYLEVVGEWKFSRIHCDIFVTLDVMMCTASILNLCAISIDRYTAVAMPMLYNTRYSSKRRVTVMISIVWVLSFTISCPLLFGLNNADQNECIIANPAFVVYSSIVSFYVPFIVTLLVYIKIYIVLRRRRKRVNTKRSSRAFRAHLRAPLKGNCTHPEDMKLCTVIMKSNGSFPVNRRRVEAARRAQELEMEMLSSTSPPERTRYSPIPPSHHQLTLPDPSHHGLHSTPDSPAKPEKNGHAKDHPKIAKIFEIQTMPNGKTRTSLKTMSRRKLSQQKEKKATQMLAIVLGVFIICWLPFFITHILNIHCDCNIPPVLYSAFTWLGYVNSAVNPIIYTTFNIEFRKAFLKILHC

[2] = system: untransfected CHO-K1 cells; experiment: DMR off-target test in untransfected CHO-K1 cells
hD2longR [3] = target: T2, hD2longR (Homo sapiens, UniProt P14416); conditions: cited from earlier work
T2 sequence (P14416 whole entry): as above

D2R = conditions: cited from earlier work; for Emax, [35S]GTPγS binding: relative to dopamine
CHO-K1 hD2longR cells = assay type: cell-based, human
hD2longR [4] = target: T2, hD2longR; assay type: cell-based
[5] = target: T1, human dopamine D2long receptor; remark: listed apart in the source
D2long receptors = conditions: read-out: EC50 (DMR); cited from earlier work
[6] = target: T1, human dopamine D2long receptor; experiment: cell-based; conditions: CHO-K1, read-out: DMR Emax (%)
[7] = CHO-K1 hD2longR cells pretreated with the agent (PTX, CTX about 20 h; FR900359 2 h; forskolin 1 μM 40 min; EGTA 2 mM in assay buffer)

**Q.** Which “DMR Emax (%)” value [1] does the source give for R-(−)-apomorphine here?
**A.** 102 ± 5%

**Q.** What about the “quality of action in the DMR assay (full / partial agonist)” value [1] of the same molecule?
**A.** full agonist

**Q.** What about the “DMR response in untransfected CHO-K1 cells (off-target activity)” value (from here on “DMR response … (off-target activity)”) [2] of the same molecule?
**A.** did not elicit a DMR signal

**Q.** What about the “β-arrestin2 recruitment Emax (%)” value (hD2longR [3]) of the same molecule?
**A.** 87 ± 3^a %

**Q.** And the “pEC50, [35S]GTPγS binding” value (D2R; ref 42)?
**A.** 7.66

**Q.** What about the “pEC50, [35S]GTPγS binding” value (D2R; ref 49) of the same molecule?
**A.** 6.76

**Q.** What about the “Emax, [35S]GTPγS binding” value (D2R; ref 42) of the same molecule?
**A.** 53%

**Q.** What about the “Emax, [35S]GTPγS binding” value (D2R; ref 49) of the same molecule?
**A.** 90%

**Q.** With `C=C[C@@]1(C)CC(=O)[C@]2(O)[C@@]3(C)[C@@H](O)CCC(C)(C)[C@@H]3[C@H](O)[C@H](OC(C)=O)[C@@]2(C)O1` [forskolin] as the molecule, how does the “effect on the quinpirole induced DMR response” value (CHO-K1 hD2longR cells; [7]) read?
**A.** increase in quinpirole efficacy

**Q.** And the “time of minimum of the forskolin DMR signal” value (CHO-K1 hD2longR cells; forskolin alone)?
**A.** about 5 min

**Q.** What about the “DMR response induced by the agent alone in CHO-K1 hD2longR cells” value (“DMR response induced by the agent alone” for short) (CHO-K1 hD2longR cells; without quinpirole, thapsigargin in EGTA (2 mM) containing buffer, forskolin 1 μM) of the same molecule?
**A.** negative DMR signal

**Q.** And the “effect on receptor expression ([3H]N-methylspiperone binding)” value (from here on “effect on receptor expression”) (hD2longR [4]; forskolin 1 μM for 40 min)?
**A.** did not exhibit a marked effect on the receptor expression

**Q.** And the “effect on receptor expression” value (hD2longR [4]; forskolin 1 μM for 20 h)?
**A.** strong increase in specific radioligand binding

**Q.** With cholera toxin [CTX] as the molecule, how does the “DMR response induced by the agent alone” value (CHO-K1 hD2longR cells) read?
**A.** did not induce a DMR response

**Q.** What about the “effect on the quinpirole induced DMR response” value (CHO-K1 hD2longR cells) of the same molecule?
**A.** apparent increase in quinpirole efficacy

**Q.** What about the “effect on receptor expression” value (hD2longR [4]) of the same molecule?
**A.** slight up-regulation

**Q.** Which “Hill Slope of inhibition curve” value ([5]; antagonist mode, versus 30 nM quinpirole) does the source give for `CCN1CCC[C@H]1CNC(=O)c1cc(S(N)(=O)=O)ccc1OC` [S-(−)-sulpiride] here?
**A.** −1.18

**Q.** Which “DMR response induced by the agent alone” value (CHO-K1 hD2longR cells) does the source give for `C=C1C(=O)N[C@@H](C)C(=O)N(C)[C@@H](C)C(=O)N[C@@H]([C@H](OC(=O)[C@@H](NC(=O)CC)[C@H](O)C(C)C)C(C)C)C(=O)N(C)[C@@H]([C@@H](C)OC)C(=O)O[C@H](C(C)C)[C@H](NC(C)=O)C(=O)O[C@H](Cc2ccccc2)C(=O)N1C` [FR900359] (Ac-[X1][dPhLac][NMeDha]A[NMeA][X1](Leu(3R-OH,Nα-propionyl))[NMeT](Me); ester 1-C) here?
**A.** did not induce a DMR response

**Q.** What about the “effect on the quinpirole induced DMR response” value (CHO-K1 hD2longR cells; [7]) of the same molecule?
**A.** did not show a pronounced effect

**Q.** Which “DMR response induced by the agent alone” value (CHO-K1 hD2longR cells) does the source give for `C/C=C(/C)C(=O)O[C@H]1C(C)=C2[C@H]([C@@H]1OC(=O)CCCCCCC)[C@@](C)(OC(C)=O)C[C@H](OC(=O)CCC)[C@@]1(O)[C@H]2OC(=O)[C@@]1(C)O` [thapsigargin] here?
**A.** rapidly decreasing negative DMR signal

**Q.** And the “time to plateau of the thapsigargin-induced negative DMR signal” value (CHO-K1 hD2longR cells; EGTA containing assay buffer)?
**A.** approximately 15 min

**Q.** And the “effect on the quinpirole induced DMR response” value (CHO-K1 hD2longR cells; thapsigargin (1 μM or 2 μM, 20 min) in combination with EGTA (2 mM))?
**A.** completely abrogated the quinpirole-induced response

**Q.** Which “DMR response … (off-target activity)” value [2] does the source give for `O=C(CCCN1CCC(O)(c2ccc(Cl)cc2)CC1)c1ccc(F)cc1` [Haloperidol, haloperidol] here?
**A.** slight negative DMR response

**Q.** With pertussis toxin [PTX] as the molecule, how does the “DMR response induced by the agent alone” value (CHO-K1 hD2longR cells) read?
**A.** did not induce a DMR response

**Q.** And the “effect on the quinpirole induced DMR response” value (CHO-K1 hD2longR cells; [7])?
**A.** concentration-dependent decrease in the DMR response

**Q.** Which “DMR response … (off-target activity)” value [2] does the source give for `CNc1cc(OC)c(C(=O)NC2CCN(Cc3ccccc3)C2C)cc1Cl` (centres unmarked) [Nemonapride, nemonapride] here?
**A.** slight negative DMR response

**Q.** And the “Hill Slope of inhibition curve” value [5]?
**A.** −1.95

**Q.** Which results are given for `CCCN[C@H]1CCc2nc(N)sc2C1` [Pramipexole, pramipexole]?
**A.** quality of action in the DMR assay (full / partial agonist) [1]: full agonists; EC50 (D2long receptors): 8.7 nM; Emax [6]: 97 ± 0.1%

**Q.** Which “effect on the quinpirole induced DMR response” value (CHO-K1 hD2longR cells; [7]) does the source give for `O=C(O)CN(CCOCCOCCN(CC(=O)O)CC(=O)O)CC(=O)O` [EGTA] here?
**A.** completely abrogated the quinpirole-induced response

**Q.** Which EC50 (D2long receptors) does the source give for `NCCc1ccc(O)c(O)c1` [Dopamine, dopamine] here?
**A.** 11 nM
